Measurements as given in US20230301998A1, “METHODS AND COMPOSITIONS FOR INDUCTION OF ANTITUMOR IMMUNITY” (Sanford Burnham Prebys Medical Discovery Institute, priority 2020, published 2023).

System: Nlrc5 and Nlrc5 target genes
Experiment: Expression of antigen presentation genes / surface MHCI in B16 cells
Type: cell-based, mouse
Conditions: B16 cells, MTA 100 μM for 24 hr, qPCR (FIG. 14E)

With `CSC[C@H]1O[C@@H](n2cnc3c(N)ncnc32)[C@H](O)[C@@H]1O` [MTA] the “basal Nlrc5 expression and that of Nlrc5 target genes (Tap1, B2m, Psmb9)” value was “increased”.
